The results in this text go back to patent US12195479B2, “Five- and six-membered compound, and preparation method therefor and pharmaceutical composition and use thereof” (HANGZHOU POLYMED BIOPHARMACEUTICALS, INC., priority 2021, dated 2025).

The term IC50 denotes the midpoint of a concentration-inhibition curve.

One assay has as its target T1, IRAK4 kinase (Homo sapiens, UniProt Q9NWZ3).
T1 sequence (Q9NWZ3 1-460): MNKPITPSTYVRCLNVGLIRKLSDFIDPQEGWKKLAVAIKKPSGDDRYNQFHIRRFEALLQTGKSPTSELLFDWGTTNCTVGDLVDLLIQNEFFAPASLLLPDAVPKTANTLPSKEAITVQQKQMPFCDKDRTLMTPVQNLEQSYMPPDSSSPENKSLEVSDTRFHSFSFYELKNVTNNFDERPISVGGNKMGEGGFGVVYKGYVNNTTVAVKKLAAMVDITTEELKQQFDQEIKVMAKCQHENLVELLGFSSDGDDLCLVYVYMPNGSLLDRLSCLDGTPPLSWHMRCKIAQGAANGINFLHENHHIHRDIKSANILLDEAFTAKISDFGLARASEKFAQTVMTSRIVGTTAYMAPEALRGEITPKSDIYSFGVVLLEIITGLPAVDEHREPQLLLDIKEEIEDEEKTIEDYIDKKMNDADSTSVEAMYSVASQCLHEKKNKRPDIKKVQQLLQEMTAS
The assay is described as follows: Kinase inhibition, fluorescence microfluidic mobility shift assay (IRAK4). It is filed as biochemical. Conditions: substrate peptide FAM-P8 3 μM, ATP 10 μM; one hour at 28° C.; assayed in duplicate.

The target in a further assay is T2, FLT3 kinase (Homo sapiens, UniProt P36888).
T2 sequence (P36888 564-993): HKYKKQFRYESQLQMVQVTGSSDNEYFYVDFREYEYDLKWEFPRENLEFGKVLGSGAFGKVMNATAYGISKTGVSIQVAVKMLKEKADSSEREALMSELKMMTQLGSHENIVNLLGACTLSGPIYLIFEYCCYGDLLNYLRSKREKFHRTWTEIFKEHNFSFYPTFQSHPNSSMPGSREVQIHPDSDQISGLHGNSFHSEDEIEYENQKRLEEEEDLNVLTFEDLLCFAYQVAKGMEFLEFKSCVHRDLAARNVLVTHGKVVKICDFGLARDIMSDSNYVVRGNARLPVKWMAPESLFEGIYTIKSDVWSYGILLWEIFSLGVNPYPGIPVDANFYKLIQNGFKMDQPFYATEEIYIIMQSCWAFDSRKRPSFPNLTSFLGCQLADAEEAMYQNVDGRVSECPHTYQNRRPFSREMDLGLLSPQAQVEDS
The assay is described as follows: Kinase inhibition, fluorescence microfluidic mobility shift assay (FLT3). In kind it is biochemical. The settings on record: substrate peptide FAM-P2 3 μM, ATP 97 μM; one hour at 28° C.; assayed in duplicate.

A further assay deals with MV4-11 cells. Kind of assay: Cytotoxicity against MV4-11 cells (CellTiter-Glo). The settings on record: Homo sapiens, incubated for 72 hours, CellTiter-Glo chemiluminescence. In kind it is cell-based. The method, then:
Determination of the IC50 Value of the Compound's Cytotoxicity Against MV4-11 Cells
MV-4-11 cells were cultured with IMDM complete medium (IMDM+10% fetal bovine serum+1% Penicillin-Streptomycin, a mixture of penicillin-streptomycin). • 2. MV-4-11 cells in good condition were collected and washed twice with DPBS ([…] phosphate buffered saline solution). • 3. MV-4-11 cells were resuspended with IMDM complete medium, the cell density was adjusted to 1.11×10^6 cells/mL, and the MV-4-11 cells were added to 96-well plates at 90 μL per well. • 4. A compound solution with 10-fold concentration was prepared with IMDM complete medium, 10 μL of the compound solution with 10-fold concentration was added to the cells in the 96-well plate, mixed well, and then the 96-well plate was placed in a 5% CO2 incubator at 37° C. and incubated for 72 hours. • 5. After the incubation, the 96-well plate was taken out and equilibrated for 30 minutes at room temperature. Then 100 μL of CellTiter Glo reagent was added to each well and mixed on a horizontal shaker for 2 minutes. • 6. The 96-well plate was removed, equilibrated at room temperature for 10 minutes, and the chemiluminescence value was detected on a microplate reader.
A general note: Cellular ATP, detected with luciferase, serves as a proxy for viable cell number.

Procedure for FLT3 kinase: Based on the experimental method of fluorescence microfluidic mobility shift assay, the IC50 value of the compound for competitive binding of ATP to kinases IRAK4 and FLT3 was determined. The initial detection concentration of the compound was 10 μM, which was diluted to 0.38 nM with a 4-fold gradient and assayed in duplicate. In this case, commercially available staurosporine was the standard control for the assay.
Information on reagents and consumables is as follows: • IRAK4 kinase (Carna, Cat. No. 09-145, Lot. No. 14CBS-0020 H) • FLT3 kinase (Carna, Cat. No. 08-154, Lot. No. 07CBS-2350) • Substrate peptide FAM-P2 (GL Biochem, Cat. No. 112394, Lot. No. P131014-XP112394) • Substrate peptide FAM-P8 (GL Biochem, Cat. No. 112396, Lot. No. P170731-SY112396) • ATP (adenosine triphosphate, Sigma, Cat. No. A7699-1G, CAS No. 987-65-5) • DMSO (dimethyl sulfoxide, Sigma, Cat. No. D2650) • EDTA (ethylenediaminetetraacetic acid, Sigma, Cat. No. E5134, CAS No. 60-00-4) • Staurosporine (Selleckchem, Cat. No. 51421) • HEPES (4-(2-Hydroxyethyl)-1-piperazineethanesulfonic acid, Gibco, Cat. No. 15630-080) • Brij-35 solution (Polyoxyethylene lauryl ether, Sigma, Cat. No. B41840-100 mL) • DTT (dithiothreitol, Sigma, Cat. No. D0632-20G) • 0.2% Coating Reagent #3 (0.2% coating reagent, Perkin Elmer, Cat. No. 760050) • 96-well plate (Corning, Cat. No. 3365) • 384-well plate (Corning, Cat. No. 3573) Experimental operation method: • 1) FLT3 and IRAK4 kinases were dissolved in the kinase buffer (50 mM HEPES pH 7.5, 10 mM MgCl2, 2 mM DTT, and 0.01% Brij-35) at final concentrations of 0.9 nM, 30 nM, and 6 nM, respectively. • 2) The substrate peptide FAM-P2 and the substrate peptide FAM-P8, together with ATP, were dissolved in the above kinase buffer, respectively, where the final concentrations of the substrate peptide FAM-P2 and ATP for the determination of FLT3 were 3 μM and 97 μM, respectively; and the final concentrations of the substrate peptide FAM-P8 and ATP for the determination of IRAK4 were 3 μM and 10 μM, respectively. • 3) Compound dilution: The compound was first diluted to 50 μM, and then diluted downward with DMSO in a 4-fold gradient. In this case, the solution without compound and kinase served as the blank control, corresponding to the “minimum value” shown below; the solution without compound but containing kinase, adenosine triphosphate, DMSO, and the buffer served as the positive control, corresponding to the “maximum value” shown below. • 4) Kinase reaction and termination: 10 μL of the kinase buffer was added to a 384-well plate containing 5 μL of the compound to be tested, and the mixture was incubated for 10 minutes at room temperature; another 10 μL, of buffer containing the substrate peptide and adenosine triphosphate was added to the 384-well plate, and after incubation for one hour at 28° C., 25 μL, of termination solution (100 mM HEPES pH 7.5, 50 mM EDTA, 0.2% Coating Reagent #3, and 0.015% Brij-35) was added to each well for reaction termination. • 5) Data reading: CaliperEZ Reader II instrument was used to read the conversion rate data. Setting conditions: downstream voltage as −500 V, upstream voltage as −2250 V, base pressure as −0.5 PSI, and screening pressure as −1.2 PSI. • 6) Data calculation: the conversion rate data was copied from CaliperEZ Reader II, and the conversion rate was converted into inhibition rate data.

As for `Cc1cc(-c2nc(C(=O)Nc3cc4cn(C5CCN(CC(F)(F)F)CC5)nc4cc3C(C)(C)O)co2)ccn1` [II-59], the half-maximal inhibitory concentration (IC50) on IRAK4 kinase was 4.9 nM; on FLT3 kinase, 0.63 nM; with MV4-11 cells, 12.5 nM.
For `Cc1cc(-c2nc(C(=O)Nc3cc4cn(CC5(F)CNC5)nc4cc3C(C)(C)O)co2)ccn1` [II-108], the figures for the concentration for half-maximal inhibition (IC50) at IRAK4 kinase, on FLT3 kinase and with MV4-11 cells were 11.7 nM, 0.29 nM and 22 nM, respectively.
The like results for `CC(C)(O)c1cc2nn(C3CC4CCC(C3)N4)cc2cc1NC(=O)c1coc(-c2ccnc(C(F)(F)F)c2)n1` (stereo not drawn) [II-118] were, in that order, 12.2 nM, 0.44 nM and 6.2 nM.
The like results for `CC(C)(O)c1cc2nn([C@H]3CC[C@@H](O)CC3)cc2cc1NC(=O)c1coc(-c2ccnc(C(F)(F)F)c2)n1` [II-112] were, in that order, 6.96 nM, 2.8 nM and 11.9 nM.
For `Cc1cc(-c2nc(C(=O)Nc3cc4cn(CCC(C)(C)O)nc4cc3N3CCC(F)(F)C3)co2)ccn1` [II-98], in that order: 5.2 nM, 0.44 nM and 0.3 nM.
For the compound `Cc1cc(-c2nc(C(=O)Nc3cc4oc(N5CCC(F)(F)CC5)nc4nc3N3CCC(O)C3)co2)ccn1` (stereo not drawn) [II-129], the IC50 came out at 57 nM at IRAK4 kinase, 11 nM at FLT3 kinase and 49.6 nM in the assay with MV4-11 cells.
Regarding `Cc1cc(-c2nc(C(=O)Nc3cc4cn(CCC(C)(C)O)nc4cc3C(C)(C)O)co2)ccn1` [II-49], the concentration for half-maximal inhibition (IC50) on IRAK4 kinase was 5.1 nM; on FLT3 kinase it was 0.32 nM; in the assay with MV4-11 cells it was 5 nM.
The like results for `CC(C)(O)CCn1cc2cc(NC(=O)c3coc(-c4ccnc(C(F)(F)F)c4)n3)c(C(C)(C)O)cc2n1` [II-93] were, in that order, 2.7 nM, 2.2 nM and 21 nM.
As for `COc1cc2nn(C3CCS(=O)(=O)CC3)cc2cc1NC(=O)c1coc(-c2ccnc(C)c2)n1` [II-96], the 50% inhibitory concentration (IC50) at IRAK4 kinase worked out at 3.7 nM; at FLT3 kinase it was 0.22 nM; in the assay on MV4-11 cells it was 6.5 nM.
As for `Cc1cc(-c2nc(C(=O)Nc3cc4cn(C5CCC(O)CC5)nc4cc3C(C)(C)O)co2)ccn1` (stereo not drawn) [II-54], the IC50 on IRAK4 kinase is 23 nM; at FLT3 kinase, 0.78 nM; in the assay with MV4-11 cells it was 35.3 nM.
With `Cc1cc(-c2nc(C(=O)Nc3cc4cn(C5CCC6(CNC6)C5)nc4cc3C(C)(C)O)co2)ccn1` (stereo not drawn) [II-99], the IC50 on IRAK4 kinase was determined as 5.5 nM; at FLT3 kinase it was 0.26 nM; in the assay on MV4-11 cells, 10.9 nM.
The like results for `Cc1cc(-c2nc(C(=O)Nc3cc4cn(C5CCN(C6COC6)CC5)nc4cc3C(C)(C)O)co2)ccn1` [II-106] were, in that order, 3.3 nM, 0.41 nM and 8 nM.
For `Cc1cc(-c2nc(C(=O)Nc3cc4cn(CCC(C)(C)O)nc4cc3N3CCC(O)C3)co2)ccn1` (stereo not drawn) [II-102], in that order: 21 nM, 0.85 nM and 8 nM.
For `[2H]C([2H])([2H])C(O)(c1cc2nn(CCC(C)(C)O)cc2cc1NC(=O)c1coc(-c2ccnc(C(F)(F)F)c2)n1)C([2H])([2H])[2H]` [II-109], in that order: 6.48 nM, 4.2 nM and 15.2 nM.
As to `COc1cc2nn(C3CCNCC3)cc2cc1NC(=O)c1coc(-c2ccncc2)n1` [II-10C], the IC50 on IRAK4 kinase is 25 nM; at FLT3 kinase, 2.9 nM; in the assay on MV4-11 cells, 4.3 nM.
The like results for `COc1cc2nn(C3CCNCC3)cc2cc1NC(=O)c1ccn(-c2ccnc(C)c2)n1` [II-11C] were, in that order, 6.9 nM, 0.75 nM and 4.6 nM.
The like results for `Cc1cc(-c2nc(C(=O)Nc3cc4cn(CCC(C)(C)O)nc4cc3C(C)(O)C(F)(F)F)co2)ccn1` (stereo not drawn) [II-111] were, in that order, 4.94 nM, 0.42 nM and 0.8 nM.
For `COc1cc2nn(C3CCS(=N)(=O)CC3)cc2cc1NC(=O)c1coc(-c2ccnc(C)c2)n1` (stereo not drawn) [II-95], in that order: 12 nM, 0.47 nM and 18 nM.
On to `Cc1cc(-c2nc(C(=O)Nc3cc4cn(C5CCOC(C)(C)C5)nc4cc3C(C)(C)O)co2)ccn1` (stereo not drawn) [II-103], for which the half-inhibitory concentration (IC50) on IRAK4 kinase amounted to 3.2 nM; on FLT3 kinase it was 0.35 nM; with MV4-11 cells, 3 nM.
The like results for `Cc1cc(-c2nc(C(=O)Nc3cc4oc(N5CCOCC5)nc4nc3C(C)(C)O)co2)ccn1` [II-122] were, in that order, 14.1 nM, 6.23 nM and 33 nM.
For `Cc1cc(-c2nc(C(=O)Nc3cc4cn(C5CC6CCC(C5)N6)nc4cc3C(C)(C)O)co2)ccn1` (stereo not drawn) [II-100], the IC50 on IRAK4 kinase amounted to 22 nM; at FLT3 kinase, 0.62 nM; in the assay with MV4-11 cells, 9 nM.
For `COc1cc2nn(CCS(C)(=N)=O)cc2cc1NC(=O)c1coc(-c2ccnc(C)c2)n1` (stereo not drawn) [II-12], in that order: 10 nM, 0.44 nM and 17.9 nM.
